According to article PMC12723477, “Evaluating the Antifungal Potential of Autophagy-Related Protein 4 (ATG4) Inhibitors against Human Fungal Pathogens” (Journal of Microbiology and Biotechnology, 2025):

Key:
[1] = molecular target: T1, CnAtg4T (truncated Cryptococcus neoformans ATG4) (Cryptococcus neoformans, UniProt J9VN57); assay: microscale thermophoresis with labelled purified CnAtg4T; also in vitro cleavage assay (IC50 […]) and BRET; assay type: binding
T1 construct: gene CNAG_02662; CnAtg4T, 6xHis, truncated version excluding the disordered N-terminus, retaining the catalytic triad Cys563/Asp782/His784
T1 sequence (J9VN57 entry or part of it): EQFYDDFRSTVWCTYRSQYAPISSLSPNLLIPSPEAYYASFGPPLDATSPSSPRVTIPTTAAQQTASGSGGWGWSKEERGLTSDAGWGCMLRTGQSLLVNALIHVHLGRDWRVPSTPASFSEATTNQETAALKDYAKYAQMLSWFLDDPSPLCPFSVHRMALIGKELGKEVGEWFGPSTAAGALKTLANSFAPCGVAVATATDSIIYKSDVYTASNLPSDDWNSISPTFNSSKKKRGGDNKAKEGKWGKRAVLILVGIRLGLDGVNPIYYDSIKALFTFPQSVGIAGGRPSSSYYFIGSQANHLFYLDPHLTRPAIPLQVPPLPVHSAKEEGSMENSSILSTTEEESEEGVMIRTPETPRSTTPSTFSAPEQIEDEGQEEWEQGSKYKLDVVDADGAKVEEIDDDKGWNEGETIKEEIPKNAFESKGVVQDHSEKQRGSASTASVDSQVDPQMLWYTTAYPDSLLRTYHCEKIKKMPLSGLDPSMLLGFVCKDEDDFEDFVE

[2] = molecular target: T2, AnAtg4 (Aspergillus niger ATG4) (Aspergillus niger, UniProt A2QY50); assay: in vitro cleavage of AnAtg8 sensor by purified AnAtg4 at […] compound (immunoblot); assay type: biochemical
T2 construct: 6xHis-AnAtg4
T2 sequence (A2QY50 1-404): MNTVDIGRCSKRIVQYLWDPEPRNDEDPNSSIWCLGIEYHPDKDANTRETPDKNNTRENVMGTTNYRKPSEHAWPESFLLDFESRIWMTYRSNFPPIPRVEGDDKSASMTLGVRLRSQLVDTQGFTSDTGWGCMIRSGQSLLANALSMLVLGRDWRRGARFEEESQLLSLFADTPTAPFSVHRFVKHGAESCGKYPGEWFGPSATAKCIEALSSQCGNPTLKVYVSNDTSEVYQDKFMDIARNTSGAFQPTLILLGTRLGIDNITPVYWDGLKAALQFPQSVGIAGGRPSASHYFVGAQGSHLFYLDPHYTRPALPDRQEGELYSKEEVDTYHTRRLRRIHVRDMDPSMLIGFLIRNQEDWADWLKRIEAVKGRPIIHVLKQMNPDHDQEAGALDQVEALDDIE

[3] = molecular target: T1, CnAtg4T (truncated Cryptococcus neoformans ATG4); assay: in vitro cleavage of CnAtg8 sensor by purified CnAtg4T (immunoblot) and BRET; assay type: biochemical

SMILES	Kd [1] [µM]	in vitro cleavage of AnAtg8 sensor by purified AnAtg4 at 10 μM compound (immunob) [2]	IC50 [3] [µM]
O=c1c2ccccc2[se]n1-c1ccccc1 [EB, Ebselen]	0.7 ± 0.32	the inhibitors exhibited comparable inhibitory effects on the ATG8 maturation catalyzed by AfAtg4 and AnAtg4 (Fig. 2D)	–
O=C1c2ccccc2[Se](=O)N1c1ccccc1 (stereo not drawn) [EO, ebselen oxide]	–	the inhibitors exhibited comparable inhibitory effects on the ATG8 maturation catalyzed by AfAtg4 and AnAtg4 (Fig. 2D)	4.8
Cc1ccc(-n2sc3ccccc3c2=O)cc1 [PT, 2-(4-methylphenyl)-1,2-benzisothiazol-3(2H)-one]	–	the inhibitors exhibited comparable inhibitory effects on the ATG8 maturation catalyzed by AfAtg4 and AnAtg4 (Fig. 2D)	8.44
